Residue numbers refer to the chain shown, from its start. ≈ marks a conversion by molar mass, not a printed value. Structures can show the parent of a compound that is named as a salt.
Assays:
[1] = target: T1, DPAGT1 Arg301His (Homo sapiens, UniProt Q9H3H5, R301H); test: Thermostability assay (label free differential scanning fluorimetry); assay type: binding, H. sapiens; details: 50 μM compound
T1 construct: combined with the LIC-adapted primers to amplify the complete DPAGT1 gene, including the desired mutations; 6xHis purification tag with TEV site (N, cleaved yes); made in house; host or cells: Spodoptera frugiperda Sf9 insect cells (baculovirus)
T1 sequence (Q9H3H5 1-408 R301H): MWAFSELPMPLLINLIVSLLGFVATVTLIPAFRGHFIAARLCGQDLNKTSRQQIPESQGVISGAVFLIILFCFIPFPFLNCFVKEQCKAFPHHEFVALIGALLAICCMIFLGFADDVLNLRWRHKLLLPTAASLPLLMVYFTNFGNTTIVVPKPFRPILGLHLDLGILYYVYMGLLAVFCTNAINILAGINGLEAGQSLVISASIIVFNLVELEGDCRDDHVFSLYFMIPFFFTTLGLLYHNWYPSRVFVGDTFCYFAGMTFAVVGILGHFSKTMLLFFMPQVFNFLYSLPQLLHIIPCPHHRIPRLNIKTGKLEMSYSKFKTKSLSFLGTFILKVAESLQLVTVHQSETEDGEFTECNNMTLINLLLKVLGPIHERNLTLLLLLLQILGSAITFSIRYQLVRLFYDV
Procedure: Samples with a volume of 40 μl were prepared containing 0.5 mg/ml protein and 50 μM compound or 5% DMSO in GFB. A glass capillary was dipped into each sample, with the capillary held horizontally to ensure that the capillary was full of the sample. The capillaries were placed on the capillary holder on the Nanotemper Prometheus. Technical triplicates of each sample were prepared, and each experiment was conducted with biological triplicates of each protein. PR.ThermControl software was used to run the experiment and analyse the data. A melting curve from 20 °C – 95 °C at 5 °C/min was performed. The minimum of the first derivative of the 330/350nm ratio was used to determine the Tm1/2.

[2] = target: T2, DPAGT1 (Homo sapiens, UniProt Q9H3H5); test: Radiolabeled substrate enzyme activity assay; assay type: biochemical, H. sapiens; details: purified DPAGT1 enzyme, Figure 6F
T2 construct: H. sapiens DPAGT1 (1-408, N-terminal 6 x HIS tag, TEV cleavage site); 6xHis purification tag with TEV site (N, cleaved yes); made in house; host or cells: Spodoptera frugiperda Sf9 insect cells (baculovirus)
T2 sequence (Q9H3H5 1-408): T1 sequence (Q9H3H5 1-408 R301H) with H301R
Procedure: 2 μl of 2 μM DPAGT1 WT or mutant proteins in GFB buffer supplemented with 5mM extra MgCl2, 1% OGNG/CHS/cardiolipin and dolichyl monophosphate was combined with 2 μl of UDP-N-acetyl [1-14C] […] The reaction was terminated by the addition of 6 μl of 100% methanol and immediately transferred onto ice. 1 μl of sample was spotted onto a silica coated TLC plate in triplicate and run with a mobile phase consisting of chloroform, methanol, and water at a 65:25:4 ratio respectively. After the run, the TLC plate was dried thoroughly, wrapped in cling film, incubated with a phosphor imaging substrate for 4 days, then phosphor imaged using a Biorad. The pixel density of the spots corresponding to the hydrophobic product was divided by combined pixel density of the product and the substrate and multiplied by the known concentration of substrate added to ascertain the amount of product formed.

[3] = tested on: P. aeruginosa ATCC27853; test: Micro-broth dilution and drop plate antimicrobial susceptibility test; assay type: cell-based; details: Pseudomonas aeruginosa
Procedure: (§1) In a sterile 96-well plate, serial dilutions were made with the test substance to final volume of 50 μl. Inoculum was then prepared in Mueller-Hinton broth to 0.5 McFarland and diluted before adding 50 μl to the well to make ∼1x10^5 CFU/ml. The culture plate was incubated at 35 °C for 20-24 hrs. A positive growth control and sterility wells were also prepared along with the culture wells. Absorbance at OD600 was taken using BMG Labtech SPECTROstar Omega spectrophotometer. MIC is determined by the lowest concentration without growth. IC50 is determined from plotting a dose-response curve, see Data Analysis below. To determine the MBC, using a multi-channel pipette, 1 μl of culture broth was taken from the same 96-well microdilution growth plate and carefully inoculated on surface of MH agar plate. The plate is then incubated for additional 20 hrs. at 35 °C. The MBC value is the lowest concentration without observed growth on the agar.

[4] = tested on: S. aureus ATCC29219; test: as above; assay type: cell-based; details: Staphylococcus aureus
Procedure: as §1

[5] = tested on: E. coli ATCC25922; test: as above; assay type: cell-based; details: Escherichia coli
Procedure: as §1

[6] = tested on: Mtb-infected J774A.1 macrophages; test: Efficacy against Mtb growing in infected macrophages; details: J774A.1 macrophages treated 3 or 7 days
[7] = tested on: Mtb-GFP; assay type: cell-based, Mycobacterium tuberculosis

Compound | Thermostability (Tm1/2) with added compound [1] [°C] | effect on DPAGT1 catalytic activity [2] | IC50 [3] [µg/mL] | MBC [3] [µg/mL] | MIC [3] [µg/mL] | IC50 [4] [µg/mL] | MBC [4] [µg/mL] | MIC [4] [µg/mL] | IC50 [5] [µg/mL] | MBC [5] [µg/mL] | MIC [5] [µg/mL] | reduction of intracellular bacterial burdens ([6]; 1 × MIC) [logs] | reduction of intracellular bacterial burdens ([6]; 10 × MIC) [logs] | extracellular release of GFP (lysis) [7]
N[C@H]1[C@H](O[C@H]2O[C@H](CO)[C@@H](O)[C@H](O)[C@H]2N)O[C@H](C[C@@H](O)[C@H]2O[C@@H](n3ccc(=O)[nH]c3=O)[C@H](O)[C@@H]2O)[C@H](O)[C@@H]1O [TUN, α-D-glucosamine-(1”-11')-tunicamyl uracil dihydrochloride] | 81.2±0.5 | – | – | – | – | – | – | – | – | – | – | – | – | –
CCCCCCCC(=O)N[C@H]1[C@H](O[C@H]2O[C@H](CO)[C@@H](O)[C@H](O)[C@H]2NC(=O)CCCCCCC)O[C@H](C[C@@H](O)[C@H]2O[C@@H](n3ccc(=O)[nH]c3=O)[C@H](O)[C@@H]2O)[C@H](O)[C@@H]1O [TUN-8,8, Di-N-octanoyl-tunicamycin] | – | negligible effect | 46.6 (≈ 56.9 µM) | > 400 | 83 ± 29 (≈ 101 µM) | 58.4 (≈ 71.3 µM) | 400 (≈ 488 µM) | 170 ± 60 (≈ 208 µM) | 123 (≈ 150 µM) | 400 (≈ 488 µM) | 330 ± 120 (≈ 403 µM) | 1 | 2 | lytic effects

Reference: paper PMC6218659, “Structures of DPAGT1 Explain Glycosylation Disease Mechanisms and Advance TB Antibiotic Design” (Cell, 2018)
